According to article PMC6158189, “A pharmacological probe identifies cystathionine β-synthase as a new negative regulator for ferroptosis” (Cell Death & Disease, 2018):

Legend:
[1] = molecular target: T1, CBS-FL mutant (293T-CBS Q222A) (Homo sapiens, UniProt P35520, Q222A); test: H2S in HEK293T cells stably expressing CBS Q222A (AzMC probe); type: cell-based; details: 1 mM or 2 mM HA, 8 h
T1 construct: human CBS or hCSE full-length (CBS-FL or CSE) was subcloned into pGEX-KG, pcDNA3 or pCDH vector; expressed in transfected cells
Description: HEK293T cells were transiently transfected with empty vector (EV, i and ii), hCBS-FL (iii and iv) or hCSE (v and vi) plasmids, followed by incubation with DMSO (i–iii and v) or 10 μM CH004 (iv and vi) for 8 h before staining with 50 μM AzMC, a H2S-specific probe (“Materials and Methods” section). For larger fluorescent and bright-field images, please see Supplementary Figure 4. The expression levels of hCBS or hCSE in HEK293T cells after transient transfections were determined by western blotting using an anti-CBS antibody (3E1, 1:2000; Abnova) or anti-CSE antibody (1:500, GeneTex). The densities of protein bands for hCBS or hCSE in the blots were quantified with the ImageJ software (National Institutes of Health, Bethesda, MD, USA) and expressed as ratios of respective control (EV group). […] The fluorescent images of the H2S (blue) were accordingly quantified (“Materials and Methods” section) with ImageJ. […] A representative fluorescence image from three independent experiments is shown. […]
H2S levels in living cells were detected using a H2S-specific fluorescent probe according to a protocol described previously[31],[55]. […] After incubation with 50 μM AzMC at 37 °C for 30 min, the cells were washed 4 times with PBS, and the fluorescent images were recorded with excitation by 405 nm laser by using a A1Si (Nikon) confocal microscope. […]

hCBS Q222A = molecular target: T2, hCBS Q222A (Homo sapiens, UniProt P35520, Q222A); test: purified hCBS mutant enzyme assay; type: biochemical; details: 1 mM HA, 60 mM Cys, 1.2 μM CBS-413 Q222A
T2 construct: hCBS-413 (a C-terminal truncated hCBS 1–413); GST (N); made in house; host or cells: E. coli BL21
T2 sequence (P35520 1-413 Q222A): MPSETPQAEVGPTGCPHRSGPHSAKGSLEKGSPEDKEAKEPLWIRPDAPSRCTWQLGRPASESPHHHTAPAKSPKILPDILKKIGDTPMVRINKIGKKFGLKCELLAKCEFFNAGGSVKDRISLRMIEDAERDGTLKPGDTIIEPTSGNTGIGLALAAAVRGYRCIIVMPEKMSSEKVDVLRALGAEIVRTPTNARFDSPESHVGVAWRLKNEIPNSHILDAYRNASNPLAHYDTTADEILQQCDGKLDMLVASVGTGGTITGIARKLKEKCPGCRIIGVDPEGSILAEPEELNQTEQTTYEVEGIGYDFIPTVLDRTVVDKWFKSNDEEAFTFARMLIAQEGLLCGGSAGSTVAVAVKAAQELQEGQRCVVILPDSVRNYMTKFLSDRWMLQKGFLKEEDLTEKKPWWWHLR
Description: The IC50 values of CH004 for hCBS-413, hCBS-413 mutants, hCBS-FL, hCSE or hDDC were determined according to the standard assay conditions otherwise indicated.
Figure S6. […] HEK293T cells stably expressing CBS Q222A mutant (293T-CBS Q222A) were treated with 0 (DMSO control), 5 or 10 μM CH004 for 8 h before staining with the AzMC to detect H2S. The overlaid images of fluorescent and bright-field images are shown in the left panel, and the corresponding fluorescent (blue, H2S) and bright-field images are shown in the middle and right panels, respectively. Bars: 50 μm. [picture] Figure S7. The CH004-insensitive CBS Q222A mutant can be inhibited by HA. (A) HEK293T cells stably expressing CBS Q222A mutant (293T-CBS Q222A) were treated with 0 (DMSO, control), 5 or 10 μM of CH004, 1 mM or 2 mM of HA for 8 h before staining with the AzMC to detect H2S. The overlaid images of fluorescent and bright-field images are shown in the upper panel, and the corresponding fluorescent (blue, H2S) and bright-field images are shown in the middle and lower panels, respectively. Bars: 50 μm. (B) Quantification of the mean fluorescent density of H2S (blue). The intensity of blue light of the fluorescent images was quantified by ImageJ software, quantified and deduced the background signal in HEK293T-EV cells (Supplementary Figure S3B), normalized by the corresponding cell area and expressed as percentages of control (DMSO group, 100%). Means ± SDs (n=3). One-way ANOVA with Bonferroni post-tests was used for the analysis. *, p< 0.05; **, p< 0.01; n.s. no significance. The images are one representative from three independent experiments. (C) The inhibitory effect of 1 mM HA on purified CBS Q222A mutant. The assay was performed using 60 mM Cys and 1.2 μM CBS-413 Q222A mutant. The data were expressed as percentages of control (DMSO, 100%). Means ± SDs (n=4). [picture]
Table S2. Inhibitory effects of CH004 on hCBS WT and mutants.

NO [HA, hydroxylamine, reference compound]
effect on H2S [1]: substantially decreased
inhibitory effect on activity of purified CBS Q222A mutant (hCBS Q222A): could be suppressed
